Laboratory results taken from US12157730B2, “Heteroaryl derivative, method for producing same, and pharmaceutical composition comprising same as effective component” (VORONOI INC., priority 2019, dated 2024).

Target: T1, Ba/F3 cell EGFR Exon20 ins NPH (Homo sapiens, UniProt P00533, INS773NPH)
T1 construct: expressed in transfected cells; host or cells: Ba/F3
Assay: Ba/F3 cell proliferation suppression, EGFR Exon20 ins NPH
Type: cell-based
Details: GI50 class; Ba/F3 cell line with NPH inserted at Exon20 of EGFR; 72 hours
In short: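 Seed 3000–5000 cells/well; after 24 h add compound (12 conc., 0.3 nM–50 um final); incubate 72 h; add CellTiter-Glo, 10 min room temperature; read luminescence; GI50 from % growth vs control, triplicate.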

Compound | Ba/F3 (NPH) Activity
C=CC(=O)Nc1cc(Nc2cc(N3OCC[C@@H]3Cc3cccc(Cl)c3Cl)ncn2)c(OC)cc1N1CCC(N2CCO[C@@H](C)C2)CC1 [compound 1013, N-(5-((6-((S)-3-(2,3-dichlorobenzyl)isoxazolidine-2-yl)pyrimidine-4-yl)amino)-4-methoxy-2-(4-((S)-2-methylmorpholino)piperidine-1-yl)phenyl) acrylamide] | A (GI50 < 50 nM)
C=CC(=O)Nc1cc(Nc2cc(N3OCC[C@@H]3c3ccc4ccccc4c3)ncn2)c(OC)cc1N1CCN(CC)CC1 [compound 514, N-(2-(4-ethylpiperazine-1-yl)-4-methoxy-5-((6-((R)-3-(naphthalene-2-yl)isoxazolidine-2-yl)pyrimidine-4-yl)amino)phenyl)acrylamide] | B (50 nM ≤ GI50 < 500 nM)
C=CC(=O)Nc1cc(Nc2cc(N3OCC[C@@H]3c3ccc(F)cc3)ncn2)c(OC)cc1N1CCN(C)CC1 [compound 785, N-(5-((6-((R)-3-(4-fluorophenyl)isoxazolidine-2-yl)pyrimidine-4-yl)amino)-4-methoxy-2-(4-methylpiperazine-1-yl)phenyl)acrylamide] | A (GI50 < 50 nM)
C=CC(=O)Nc1cc(Nc2cc(N3OCC[C@@H]3c3ccc(F)c(Cl)c3)ncn2)c(OC)cc1N1C[C@H]2CCN(C)[C@H]2C1 [compound 317, N-(5-((6-((R)-3-(3-chloro-4-fluorophenyl)isoxazolidine-2-yl)pyrimidine-4-yl)amino)-4-methoxy-2-((3aR, 6aR)-1-methylhexahydropyrrolo [3,4-b]pyrrole-5(1H)-yl)phenyl)acrylamide] | A (GI50 < 50 nM)
C=CC(=O)Nc1cc(Nc2cc(N3OCC[C@@H]3c3ccc(C)nc3)ncn2)c(OC)cc1N1CCC(N2C[C@@H]3C[C@H]2CO3)CC1 [Example 228, N-(2-(4-((1S,4S)-2-oxa-5-azabicyclo[2.2.1]heptane-5-yl)piperidine-1-yl)-4-methoxy-5-((6-((R)-3-(6-methylpyridine-3-yl)isoxazolidine-2-yl)pyrimidine-4-yl)amino)phenyl)acrylamide] | A (GI50 < 50 nM)
C=CC(=O)Nc1cc(Nc2cc(N3OCC[C@@H]3c3ccccc3)ncn2)c(OC)cc1N1CCC(N(C)CCOC)CC1 [compound 736, N-(4-methoxy-2-(4-((2-methoxyethyl) (methyl)amino)piperidine-1-yl)-5-((6-((R)-3-phenylisoxazolidine-2-yl)pyrimidine-4-yl)amino)phenyl) acrylamide] | A (GI50 < 50 nM)
C=CC(=O)Nc1cc(Nc2cc(N3OCC[C@@H]3c3ccc(F)c(Cl)c3)ncn2)c(OC)cc1N1CCC(N2CC[C@@H](N(C)C)C2)CC1 [compound 769, N-(5-((6-((R)-3-(3-chloro-4-fluorophenyl)isoxazolidine-2-yl)pyrimidine-4-yl)amino)-2-(4-((R)-3-(dimethylamino)pyrolidine-1-yl)piperidine-1-yl)-4-methoxyphenyl) acrylamide] | A (GI50 < 50 nM)
C=CC(=O)Nc1cc(Nc2cc(N3OCC[C@@H]3c3cc(F)cc(F)c3)ncn2)c(OC)cc1N1CCC(N2CC3(COC3)C2)CC1 [Example 103, N-(2-(4-(2-oxa-6-azaspiro[3.3]heptane-6-yl)piperidine-1-yl)-5-((6-((R)-3-(3,5-difluorophenyl)isoxazolidine-2-yl)pyrimidine-4-yl)amino)-4-methoxyphenyl) acrylamide] | A (GI50 < 50 nM)
C=CC(=O)Nc1cc(Nc2cc(N3OCC[C@@H]3c3ccccc3)ncn2)c(OC)cc1N1CCC(N2C[C@H]3C[C@@H]2CN3CC)CC1 [compound 738, N-(2-(4-((1R,4R)-5-ethyl-2,5-diazabicyclo [2.2.1]heptane-2-yl)piperidine-1-yl)-4-methoxy-5-((6-((R)-3-phenylisoxazolidine-2-yl)pyrimidine-4-yl)amino)phenyl) acrylamide] | A (GI50 < 50 nM)
C=CC(=O)Nc1cc(Nc2cc(N3OCC[C@@H]3c3ccccc3)ncn2)c(OC)cc1N1CCC(N2C[C@@H]3C[C@H]2CO3)CC1 [Example 54, N-(2-(4-((1S,4S)-2-oxa-5-oxabicyclo[2.2.1]heptane-5-yl)piperidine-1-yl)-4-methoxy-5-((6-((R)-3-phenylisoxazolidne-2-yl)pyrimidine-4-yl)amino)phenyl) acrylamide] | A (GI50 < 50 nM)
C=CC(=O)Nc1cc(Nc2cc(N3OCC[C@@H]3c3ccc(F)cc3F)ncn2)c(OC)cc1-n1cncc1C [compound 377, N-(5-((6-((R)-3-(2,4-difluorophenyl)isoxazolidine-2-yl)pyrimidine-4-yl)amino)-4-methoxy-2-(5-methyl-1H-imidazole-1-yl)phenyl)acrylamide] | B (50 nM ≤ GI50 < 500 nM)
C=CC(=O)Nc1cc(Nc2cc(N3OCC[C@@H]3Cc3cccc(N(C)C)c3)ncn2)c(OC)cc1N1CCN(C2CC2)CC1 [compound 1043, N-(2-(4-cyclopropylpiperazine-1-yl)-5-((6-((S)-3-(3-(dimethylamino)benyl)isoxazolidine-2-yl)prymidine-4-yl)amino)-4-methoxyphenyl) acrylamide] | C (500 nM ≤ GI50 < 5000 nM)

Results, then the compound that gave them:

Ba/F3 (NPH) Activity | Compound
A (GI50 < 50 nM) | C=CC(=O)Nc1cc(Nc2cc(N3OCC[C@@H]3Cc3cccc(Cl)c3F)ncn2)c(OC)cc1N1CCC(N2CCN(C3CC3)[C@H](C)C2)CC1 [compound 1019, N-(5-((6-((S)-3-(3-chloro-2-fluorobenzyl)isoxazolidine-2-yl)pyrimidine-4-yl)amino)-2-(4-((R)-4-cyclopropyl-3-methylpiperazine-1-yl)piperidine-1-yl)-4-methoxyphenyl) acrylamide]
A (GI50 < 50 nM) | C=CC(=O)Nc1cc(Nc2cc(N3OCC[C@@H]3c3cc(F)ccc3F)ncn2)c(OC)cc1N1CCC(N2C[C@@H](C)N(CC)[C@@H](C)C2)CC1 [compound 841, N-(5-((6-((R)-3-(2,5-difluorophenyl)isoxazolidine-2-yl)pyrimidine-4-yl)amino)-2-(4-((3S,5R)-4-ethyl-3,5-dimethylpiperazine-1-yl)piperidine-1-yl)-4-methoxyphenyl) acrylamide]
A (GI50 < 50 nM) | C=CC(=O)Nc1cc(Nc2cc(N3OCC[C@@H]3c3cccc(Cl)c3Cl)ncn2)c(OC)cc1N1CCN(C2CCCC2)CC1 [compound 563, N-(2-(4-cyclopentylpiperazine-1-yl)-5-((6-((R)-3-(2,3-dichlorophenyl)isoxazolidine-2-yl)pyrimidine-4-yl)amino)-4-methoxyphenyl) acrylamide]
A (GI50 < 50 nM) | C=CC(=O)Nc1cc(Nc2cc(N3OCC[C@@H]3c3cccc(F)c3Cl)ncn2)c(OC)cc1N1CCC(N2CCN(C(C)=O)CC2)CC1 [compound 601, N-(2-(4-(4-acetylpiperazine-1-yl)piperidine-1-yl)-5-((6-((R)-3-(2-chloro-3-fluorophenyl)isoxazolidine-2-yl)pyrimidine-4-yl)amino)-4-methoxyphenyl) acrylamide]
A (GI50 < 50 nM) | C=CC(=O)Nc1cc(Nc2cc(N3OCC[C@@H]3c3cccc(OC)c3)ncn2)c(OC)cc1N1CCC(N2CCOCC2)CC1 [compound 775, N-(4-methoxy-5-((6-((R)-3-(3-methoxyphenyl)isoxazolidine-2-yl)pyrimidine-4-yl)amino)-2-(4-morpholinopiperidine-1-yl)phenyl)acrylamide]
A (GI50 < 50 nM) | C=CC(=O)Nc1cc(Nc2cc(N3OCC[C@@H]3c3cccc(F)c3F)ncn2)c(OC)cc1N1CCC(N2CCN(CCC)CC2)CC1 [compound 342, N-(5-((6-((R)-3-(2,3-difluorophenyl)isoxazolidine-2-yl)pyrimidine-4-yl)amino)-4-methoxy-2-(4-(4-propylpiperazine-1-yl)piperidine-1-yl)phenyl)acrylamide]
A (GI50 < 50 nM) | C=CC(=O)Nc1cc(Nc2cc(N3OCC[C@@H]3c3ccc(F)cc3)ncn2)c(OC)cc1N1CCC(N2CCOCC2)CC1 [compound 786, N-(5-((6-((R)-3-(4-fluorophenyl)isoxazolidine-2-yl)pyrimidine-4-yl)amino)-4-methoxy-2-(4-morpholinopiperidine-1-yl)phenyl)acrylamide]
B (50 nM ≤ GI50 < 500 nM) | C=CC(=O)Nc1cc(Nc2cc(N3OCC[C@@H]3c3ccc(Cl)cc3F)ncn2)c(OC)cc1N1CCC(N2CC[C@H](N(C)C)C2)CC1 [compound 405, N-(5-((6-((R)-3-(4-chloro-2-fluorophenyl)isoxazolidine-2-yl)pyrimidine-4-yl)amino)-2-(4-((S)-3-(dimethylamino)pyrolidine-1-yl)piperidine-1-yl)-4-methoxyphenyl) acrylamide]
A (GI50 < 50 nM) | C=CC(=O)Nc1cc(Nc2cc(N3OCC[C@@H]3c3ccc(F)cc3)ncn2)c(OC)cc1N1CCC(N2CCN(C3CCC3)CC2)CC1 [Example 76, N-(2-(4-(4-cyclobutylpiperazine-1-yl)piperidine-1-yl)-5-((6-((R)-3-(4-fluorophenyl)isoxazolidine-2-yl)pyrimidine-4-yl)amino)-4-methoxyphenyl) acrylamide]
A (GI50 < 50 nM) | C=CC(=O)Nc1cc(Nc2cc(N3OCC[C@@H]3c3ccc(F)c(Cl)c3)ncn2)c(OC)cc1N1CCN(C2CC2)CC1 [compound 725, N-(5-((6-((R)-3-(3-chloro-4-fluorophenyl)isoxazolidine-2-yl)pyrimidine-4-yl)amino)-2-(4-cyclopropylpiperazine-1-yl)-4-methoxyphenyl) acrylamide]
A (GI50 < 50 nM) | C=CC(=O)Nc1cc(Nc2cc(N3OCC[C@@H]3c3cccc(Cl)c3)ncn2)c(OC)cc1N1CCC(N2CCN(C3CCC3)CC2)CC1 [Example 185, N-(5-((6-((R)-3-(3-chlorophenyl)isoxazolidine-2-yl)pyrimidine-4-yl)amino)-2-(4-(4-cyclobutylpiperazine-1-yl)piperidine-1-yl)-4-methoxyphenyl) acrylamide]
